In patent publication US5130462A, “Cyclobutane derivatives” (E. R. Squibb & Sons, Inc., priority 1991, dated 1992) one finds IC50 data, which are given here for five molecules.

For one experiment, the system named is VZV. Description: VZV plaque reduction assay in WI-38 cells. In kind it is cell-based, varicella zoster virus, strain ELLEN. To be noted: Human alphaherpesvirus 3, 6-7 days, 37° C, read-out: ID50 VZV. How it is done:
(§1) Assays were performed in cell culture systems to determine the concentrations of compounds that are effective in preventing several kinds of viral infections.
(§2) HSV-1 (herpes simplex virus type 1, strain Schooler), HSV-2 (herpes simplex virus type 2, strain 186), VZV (varicella zoster virus, strain ELLEN), HCMV (human cytomegalovirus, strain AD 169), MuLV (murine leukemia virus, strain CAS), HIV (human immunodeficiency virus, strain HTLV-IIIB).
(§3) HSV-1, HSV-2, HCMV, and VZV antiviral assays: Virus was adsorbed to WI-38 cell culture monolayers in 6 well culture plates (Costar, Cambridge, Mass.) for 1 hour prior to addition of maintenance medium containing duplicate dilutions of the test compound. Inhibition of plaque development was evaluated on fixed and stained monolayers after 4 days incubation at 37° C. for HSV-1 and HSV-2 and after 6-7 days incubation at 37° C. for HCMV and VZV. ID50 values were determined from the drug concentration which conferred at least a 50% plaque reduction compared to virus controls.
(Plaque reduction counts the foci of infection that form in a cell layer.)

In a further experiment the test system is HSV-2. In words: HSV-2 plaque reduction assay in WI-38 cells. In kind it is cell-based, herpes simplex virus type 2, strain 186. To be noted: Human alphaherpesvirus 2, WI-38, 96 h, read-out: ID50 HSV-2. How it is done: as §1, §2, §3
For another experiment, the system named is HCMV. In words: HCMV plaque reduction assay in WI-38 cells. It counts as cell-based, human cytomegalovirus, strain AD 169. Conditions: Human betaherpesvirus 5, 6-7 days, 37° C, read-out: ID50 HCMV. How it is done:
as §1, §2, §3

Another experiment concerns HIV. Description: HIV antiviral assay, inhibition of CPE in CEM cells (XTT-PMS). In kind it is cell-based, strain HTLV-IIIB. Conditions: Human immunodeficiency virus 1, CCRF-CEM, 168 h, 7 days, read-out: ID50 HIV. On the procedure: as §1, §2
HIV antiviral assay: Suspensions of CEM(Nara and Fischinger, Nature, 332:469, 1988) cells were infected at a multiplicity of infection (e.g. virus/cell) of 0.12 with HIV (strain HTLV-III B). […] Following incubation, viable cell numbers were counted in each well using a colorimetric assay following incubation of cells with XTT-PMS solution (XTT tetrazolium reagent plus phenazine methosulfate PMS).
Percent reduction of viral cytopathic effect (CPE) in drug treated compared to untreated virus infected cells, and percent reduction of cell viability in drug treated uninfected cells compared to untreated controls were calculated and plotted versus the drug concentrations tested. From these plots, the IDso (the minimum drug concentration that inhibits CPE by 50%) for each drug was calculated.
(Tetrazolium assays rely on reduction of a dye to a coloured formazan, in cell work by metabolically active cells.)

`Nc1nc2c(nnn2[C@H]2C[C@@H](CO)[C@@H]2CO)c(=O)[nH]1` (relative stereo) [(1α,2β,3α)-5-Amino-3-[2,3-bis(hydroxymethyl)cyclo-butyl]-3,6-dihydro-7H-1,2,3-triazolo[4,5-d]-pyrimidin-7-one]: in the experiment with VZV, the IC50 fell in the range of 3.8 to 38 µM.

Take `O=c1[nH]c(=O)n([C@H]2C[C@@H](CO)[C@@H]2CO)cc1I` (relative stereo) [(1α,2β,3α)-1-[2,3-Bis(hydroxymethyl)cyclobutyl]-5-iodo-2,4(1H,3H)-pyrimidinedione]: the IC50 in the experiment on HSV-2 and in the experiment on HCMV was greater than 284 µM throughout.

For `Nc1ncnc2c1ncn2[C@H]1C[C@@H](CO)[C@@H]1CO` (relative stereo) [(1α,2β,3α)-3-(6-Amino-9H-purin-9-yl)-1,2-cyclobutanedimethanol], the IC50 with HIV is 6.8 µM.

In the case of `Nc1nc2c(ncn2[C@H]2C[C@@H](CO)[C@@H]2CO)c(=O)[nH]1` (relative stereo) [(1α,2β,3α)-9-[2,3-Bis(hydroxymethyl)cyclobutyl]guanine], the IC50 in the experiment with HIV was found to be 30 µM.

As for `O=c1[nH]c(=O)n([C@H]2C[C@@H](CO)[C@@H]2CO)cc1/C=C/Br` (relative stereo) [[1α(E),2β,3α]-1-[2,3-Bis(hydroxymethyl)-cyclobutyl]-5-(2-bromoethenyl)-2,4(1H,3H)-pyrimidinedione], the IC50 with HSV-2 and with HCMV was greater than 302 µM in each case.
